Results: PubChem BioAssay (NCI)
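Exposure lasted 48 hours, with cells grown in 96-well plates and compounds tested at five concentrations. GI50 is the concentration that inhibits growth by half. TGI: concentration producing complete growth inhibition.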

Key:
Test in all cases: NCI-60 cell line screen, 48 h
[1] = test system: 786-0 renal
[2] = test system: A498 renal
[3] = test system: A549 NSCLC
[4] = test system: ACHN renal
[5] = test system: BT-549 breast
[6] = test system: CAKI-1 renal
[7] = test system: CCRF-CEM leukemia
[8] = test system: COLO 205 colon
[9] = test system: DU-145 prostate
[10] = test system: EKVX NSCLC
[11] = test system: HCT-116 colon
[12] = test system: HCT-15 colon
[13] = test system: HL-60(TB) leukemia
[14] = test system: HOP-62 NSCLC
[15] = test system: HS 578T breast
[16] = test system: HT29 colon
[17] = test system: IGROV1 ovarian
[18] = test system: K-562 leukemia
[19] = test system: KM12 colon
[20] = test system: LOX IMVI melanoma
[21] = test system: M14 melanoma
[22] = test system: MALME-3M melanoma
[23] = test system: MCF7 breast
[24] = test system: MDA-MB-231 breast
[25] = test system: MDA-MB-435
[26] = test system: MDA-N
[27] = test system: MOLT-4 leukemia
[28] = test system: NCI-H23 lung
[29] = test system: NCI-H460 lung
[30] = test system: NCI-H522 lung
[31] = test system: NCI/ADR-RES ovarian
[32] = test system: OVCAR-3 ovarian
[33] = test system: OVCAR-4 ovarian
[34] = test system: OVCAR-5 ovarian
[35] = test system: OVCAR-8 ovarian
[36] = test system: PC-3 prostate
[37] = test system: RPMI-8226 leukemia
[38] = test system: RXF 393 renal
[39] = test system: SF-268 CNS
[40] = test system: SF-295 CNS
[41] = test system: SF-539 CNS
[42] = test system: SK-MEL-2 melanoma
[43] = test system: SK-MEL-28 melanoma
[44] = test system: SK-MEL-5 melanoma
[45] = test system: SK-OV-3 ovarian
[46] = test system: SN12C renal
[47] = test system: SNB-19 CNS
[48] = test system: SR leukemia
[49] = test system: SW-620 colon
[50] = test system: T-47D breast
[51] = test system: TK-10 renal
[52] = test system: U251 CNS
[53] = test system: UACC-257 melanoma
[54] = test system: UACC-62 melanoma
[55] = test system: UO-31 renal

## COc1ccc(Oc2nc3cc(N)cc(N)c3nc2-c2ccccc2)cc1
[1]
  GI50: 24.4 µM
  TGI: > 100 µM
[2]
  GI50: 49.3 µM
  TGI: > 100 µM
[3]
  GI50: 37.4 µM
  TGI: > 100 µM
[4]
  GI50: 36.4 µM
  TGI: > 100 µM
[5]
  GI50: 32.1 µM
  TGI: > 100 µM
[6]
  GI50: 79.6 µM
  TGI: > 100 µM
[7]
  GI50: 2.97 µM
  TGI: 12.6 µM
[8]
  GI50: > 100 µM
  TGI: > 100 µM
[9]
  GI50: 69.4 µM
  TGI: > 100 µM
[10]
  GI50: 24.7 µM
  TGI: 63.1 µM
[11]
  GI50: 28.7 µM
  TGI: 75.1 µM
[12]
  GI50: 52.1 µM
  TGI: > 100 µM
[13]
  GI50: 15.4 µM
  TGI: > 100 µM
[14]
  TGI: 40.8 µM
[15]
  GI50: 24.3 µM
  TGI: > 100 µM
[16]
  GI50: 39.9 µM
  TGI: > 100 µM
[17]
  GI50: 24.9 µM
  TGI: > 100 µM
[18]
  GI50: 26.1 µM
  TGI: > 100 µM
[19]
  GI50: 37.4 µM
  TGI: > 100 µM
[20]
  GI50: 34.7 µM
  TGI: > 100 µM
[21]
  GI50: > 100 µM
  TGI: > 100 µM
[22]
  TGI: > 100 µM
[23]
  GI50: 48.2 µM
  TGI: > 100 µM
[24]
  GI50: 20.4 µM
  TGI: 64.5 µM
[25]
  GI50: 40.6 µM
  TGI: > 100 µM
[26]
  GI50: 35.2 µM
  TGI: > 100 µM
[27]
  GI50: 5.31 µM
  TGI: 93.9 µM
[28]
  GI50: 25.2 µM
  TGI: > 100 µM
[29]
  GI50: 30.6 µM
  TGI: > 100 µM
[30]
  GI50: 31.4 µM
  TGI: > 100 µM
[31]
  GI50: 59.9 µM
  TGI: > 100 µM
[32]
  GI50: 14.9 µM
  TGI: 72.7 µM
[33]
  GI50: 3.75 µM
  TGI: 24.6 µM
[34]
  GI50: 94.5 µM
  TGI: > 100 µM
[35]
  GI50: 32.3 µM
  TGI: > 100 µM
[36]
  GI50: 15 µM
  TGI: > 100 µM
[37]
  TGI: 71.4 µM
[38]
  GI50: 19.9 µM
  TGI: 73.9 µM
[39]
  GI50: 20.8 µM
  TGI: > 100 µM
[40]
  GI50: 23.4 µM
  TGI: 52.4 µM
[41]
  GI50: 23.3 µM
  TGI: 61.1 µM
[42]
  GI50: 25.1 µM
  TGI: 87.5 µM
[43]
  GI50: 19.6 µM
  TGI: 49 µM
[44]
  GI50: 44.6 µM
  TGI: > 100 µM
[45]
  GI50: 25.5 µM
  TGI: 55 µM
[46]
  GI50: 50.1 µM
  TGI: > 100 µM
[47]
  GI50: 65 µM
  TGI: > 100 µM
[48]
  GI50: 18.5 µM
  TGI: > 100 µM
[49]
  GI50: 88.2 µM
  TGI: > 100 µM
[50]
  GI50: 15.3 µM
  TGI: 97.3 µM
[51]
  GI50: 53.5 µM
  TGI: > 100 µM
[52]
  GI50: 26.6 µM
  TGI: > 100 µM
[53]
  GI50: > 100 µM
  TGI: > 100 µM
[54]
  GI50: 63.5 µM
  TGI: > 100 µM
[55]
  GI50: 28.5 µM
  TGI: > 100 µM
